{"source": "patent US7258850B2", "about": "“Methods and compositions for treating erectile dysfunction” (Aradigm Corporation, priority 1999, dated 2007)", "origin": "cited, not measured here", "key": {"sGC": {"molecular_target": "T1, sGC (Rattus norvegicus, UniProt P19686+P20595)", "T1 construct": "host or cells: in vivo, rat corpus cavernosum", "T1 sequence (P20595 1-619)": "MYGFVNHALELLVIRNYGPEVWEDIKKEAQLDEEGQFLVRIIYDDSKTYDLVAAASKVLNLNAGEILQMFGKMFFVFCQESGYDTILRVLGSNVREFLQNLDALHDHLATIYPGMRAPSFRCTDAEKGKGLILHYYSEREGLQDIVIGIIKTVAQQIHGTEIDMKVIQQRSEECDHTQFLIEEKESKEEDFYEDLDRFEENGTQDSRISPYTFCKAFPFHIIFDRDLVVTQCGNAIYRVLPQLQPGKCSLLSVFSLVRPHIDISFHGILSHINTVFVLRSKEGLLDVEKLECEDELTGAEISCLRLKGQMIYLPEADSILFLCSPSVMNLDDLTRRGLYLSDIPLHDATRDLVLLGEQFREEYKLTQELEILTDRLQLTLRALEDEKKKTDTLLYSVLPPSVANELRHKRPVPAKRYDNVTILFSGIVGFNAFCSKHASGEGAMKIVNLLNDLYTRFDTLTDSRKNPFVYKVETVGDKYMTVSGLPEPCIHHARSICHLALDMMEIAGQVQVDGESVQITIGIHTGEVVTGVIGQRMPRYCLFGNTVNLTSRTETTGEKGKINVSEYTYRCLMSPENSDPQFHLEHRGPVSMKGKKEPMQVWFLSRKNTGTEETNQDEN", "T1 sequence (P19686 1-690)": "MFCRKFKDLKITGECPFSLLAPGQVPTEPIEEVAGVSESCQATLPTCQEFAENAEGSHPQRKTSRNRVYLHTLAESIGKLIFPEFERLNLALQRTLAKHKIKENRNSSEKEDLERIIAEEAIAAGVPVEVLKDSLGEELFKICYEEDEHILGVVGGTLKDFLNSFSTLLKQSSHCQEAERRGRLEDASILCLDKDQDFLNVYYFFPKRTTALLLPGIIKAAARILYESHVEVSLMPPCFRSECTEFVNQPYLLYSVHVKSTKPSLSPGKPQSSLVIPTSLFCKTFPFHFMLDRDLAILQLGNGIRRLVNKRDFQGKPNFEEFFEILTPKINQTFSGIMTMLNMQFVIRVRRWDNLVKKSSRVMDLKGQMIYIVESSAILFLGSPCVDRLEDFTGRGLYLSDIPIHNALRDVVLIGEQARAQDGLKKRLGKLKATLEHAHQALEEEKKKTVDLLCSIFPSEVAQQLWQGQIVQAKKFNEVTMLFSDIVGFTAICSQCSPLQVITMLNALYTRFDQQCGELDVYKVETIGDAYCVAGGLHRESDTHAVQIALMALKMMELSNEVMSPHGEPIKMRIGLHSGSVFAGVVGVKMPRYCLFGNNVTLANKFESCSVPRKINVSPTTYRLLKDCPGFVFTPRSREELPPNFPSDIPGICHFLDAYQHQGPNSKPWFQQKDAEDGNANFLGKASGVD", "details": "administered intracavernously, rats"}, "smooth muscle": {"test_system": "smooth muscle", "details": "intracavernous"}, "human corpus carvernosum": {"test_system": "human corpus carvernosum", "details": "human tissue"}, "[1]": {"test_system": "rabbit corpus carvernosum", "details": "rabbit tissue"}, "[2]": {"test_system": "dopamine D1 and D2 receptor", "details": "rats, apomorphine in combination with sildenafil"}, "Rho-kinase": {"test_system": "Rho-kinase", "details": "applied topically, rats"}}, "note": "Counter-ions that a name gives are not always drawn. Like-named read-outs stand apart in the source and are kept apart here. No end group written: not given here.", "data": [{"molecule": "OCc1ccc(-c2nn(Cc3ccccc3)c3ccccc23)o1", "note": "[YC-1, 3-(5′-hydroxymethyl-2′furyl)-1-benzyl-indazole]", "values": [{"measurement": "erection", "setting": "sGC", "value": "elicited dose-dependent erection"}]}, {"molecule": "CCCc1nn(C)c2c(=O)[nH]c(-c3cc(S(=O)(=O)N4CCN(C)CC4)ccc3OCC)nc12", "note": "[sildenifil citrate, Sildenafil citrate]", "values": [{"measurement": "solubility in water", "value": "relatively insoluble in water"}]}, {"molecule": "Vasoactive intestinal peptid: intracavernous drug, potent smooth muscle relaxant (HSDAVFTDNYTRLRKQMAVKKYLNSILN; ends and bridges not checked; UniProt P01282 125-152, looked up)", "values": [{"measurement": "duration of effect", "setting": "smooth muscle", "value": "up to 2.5 hours"}]}, {"molecule": "Nc1nc(-c2nn(Cc3ccccc3F)c3ncccc23)ncc1C1CC1", "note": "[BAY-41-2272]", "values": [{"measurement": "relaxation of corpus cavernosum relative to YC-1", "setting": "human corpus carvernosum", "value": "more potently than YC-1"}, {"measurement": "relaxation of corpus cavernosum relative to YC-1", "setting": "[1]", "value": "more potently than YC-1"}]}, {"molecule": "CN1CCc2cccc3c2[C@H]1Cc1ccc(O)c(O)c1-3", "note": "[Apomorphine]", "values": [{"measurement": "duration of erectile response", "setting": "[2]", "value": "prolonged in combination with sildenafil"}, {"measurement": "duration of erectile response", "setting": "[2]; listed as apomorphine", "value": "prolonged by sildenafil"}]}, {"molecule": "C[C@@H](N)[C@H]1CC[C@H](C(=O)Nc2ccncc2)CC1", "note": "[Y-27632]", "values": [{"measurement": "erection", "setting": "Rho-kinase", "value": "stimulated erection"}]}]}
